Measurements as given in PubChem BioAssay AID2060506 (Molecular Pharmacology Branch, DTP, NCI, 2025).

Tested on: 598228-144-R-J1-PDC complex spheroid viability
Experiment: Anticancer human tumor 598228-144-R-J1-PDC patient-derived serous endometrial adenocarcinoma cell line growth inhibition [GQUAD]
Conditions: for IC50: curve of first compound; for viability, T/C: stronger effect = lower value
Outline: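 Viability of tumor cells grown as complex spheroids with endothelial and stromal cells, exposed to drug combinations. Top concentration at or near clinical Cmax (else 10 microM), diluted in half-log increments.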

[1] = second compound 0.0316 µM, first compound 0.0316 µM
[2] = second compound 0.0316 µM, first compound 0.1 µM
[3] = second compound 0.0316 µM, first compound 0.316 µM
[4] = second compound 0.0316 µM, first compound 1 µM
[5] = second compound 0.0316 µM, first compound 3.16 µM
[6] = second compound 0.0316 µM, first compound 10 µM
[7] = second compound 0.1 µM, first compound 0.0316 µM
[8] = second compound 0.1 µM, first compound 0.1 µM
[9] = second compound 0.1 µM, first compound 0.316 µM
[10] = second compound 0.1 µM, first compound 1 µM
[11] = second compound 0.1 µM, first compound 3.16 µM
[12] = second compound 0.1 µM, first compound 10 µM
[13] = second compound 0.316 µM, first compound 0.0316 µM
[14] = second compound 0.316 µM, first compound 0.1 µM
[15] = second compound 0.316 µM, first compound 0.316 µM
[16] = second compound 0.316 µM, first compound 1 µM
[17] = second compound 0.316 µM, first compound 3.16 µM
[18] = second compound 0.316 µM, first compound 10 µM
[19] = second compound 1 µM, first compound 0.0316 µM
[20] = second compound 1 µM, first compound 0.1 µM
[21] = second compound 1 µM, first compound 0.316 µM
[22] = second compound 1 µM, first compound 1 µM
[23] = second compound 1 µM, first compound 3.16 µM
[24] = second compound 1 µM, first compound 10 µM
[25] = second compound 3.16 µM, first compound 0.0316 µM
[26] = second compound 3.16 µM, first compound 0.1 µM
[27] = second compound 3.16 µM, first compound 0.316 µM
[28] = second compound 3.16 µM, first compound 1 µM
[29] = second compound 3.16 µM, first compound 3.16 µM
[30] = second compound 3.16 µM, first compound 10 µM
[31] = second compound 10 µM, first compound 0.0316 µM
[32] = second compound 10 µM, first compound 0.1 µM
[33] = second compound 10 µM, first compound 0.316 µM
[34] = second compound 10 µM, first compound 1 µM
[35] = second compound 10 µM, first compound 3.16 µM
[36] = second compound 10 µM, first compound 10 µM
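Note: spheroids exposed to the agents for one week before reading.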
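Throughout, for viability, T/C: percent of vehicle DMSO control viability so 100% = untreated growth.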

## O=c1[nH]cc(F)c(=O)[nH]1 + Cc1cnc(CNC(=O)c2c(=O)c3ccc(N4CCCN(C)CC4)nc3n3c2sc2ccccc23)cn1
Second compound 0.0316 µM
  IC50: > 10000 nM
Second compound 0.1 µM
  IC50: > 10000 nM
Second compound 0.316 µM
  IC50: > 10000 nM
Second compound 1 µM
  IC50: > 10000 nM
Second compound 3.16 µM
  IC50: > 10000 nM
Second compound 10 µM
  IC50: < 31.6 nM
[1]
  viability, T/C: 101%
[2]
  viability, T/C: 98.9%
[3]
  viability, T/C: 85.3%
[4]
  viability, T/C: 85.7%
[5]
  viability, T/C: 89%
[6]
  viability, T/C: 76%
[7]
  viability, T/C: 69.2%
[8]
  viability, T/C: 80.3%
[9]
  viability, T/C: 69.9%
[10]
  viability, T/C: 65.1%
[11]
  viability, T/C: 97.9%
[12]
  viability, T/C: 64.1%
[13]
  viability, T/C: 69.7%
[14]
  viability, T/C: 77.8%
[15]
  viability, T/C: 72.4%
[16]
  viability, T/C: 66.3%
[17]
  viability, T/C: 65.1%
[18]
  viability, T/C: 55.5%
[19]
  viability, T/C: 61.2%
[20]
  viability, T/C: 54.3%
[21]
  viability, T/C: 63.5%
[22]
  viability, T/C: 68.4%
[23]
  viability, T/C: 73.8%
[24]
  viability, T/C: 60.3%
[25]
  viability, T/C: 56.1%
[26]
  viability, T/C: 59.2%
[27]
  viability, T/C: 56%
[28]
  viability, T/C: 46.1%
[29]
  viability, T/C: 67.9%
[30]
  viability, T/C: 52.2%
[31]
  viability, T/C: 44.5%
[32]
  viability, T/C: 49.6%
[33]
  viability, T/C: 48.3%
[34]
  viability, T/C: 53.1%
[35]
  viability, T/C: 59.8%
[36]
  viability, T/C: 51.9%

## CC(=O)O[C@H]1C(=O)[C@@]2(C)[C@H]([C@H](OC(=O)c3ccccc3)[C@]3(O)C[C@H](OC(=O)[C@H](O)[C@@H](NC(=O)c4ccccc4)c4ccccc4)C(C)=C1C3(C)C)[C@]1(OC(C)=O)CO[C@@H]1C[C@@H]2O + CN(C)c1ccc(Nc2c3ccc(NC(=O)CCN4CCCC4)cc3nc3cc(NC(=O)CCN4CCCC4)ccc23)cc1
Second compound 0.0316 µM
  IC50: < 31.6 nM
Second compound 0.1 µM
  IC50: < 31.6 nM
Second compound 0.316 µM
  IC50: < 31.6 nM
Second compound 1 µM
  IC50: < 31.6 nM
Second compound 3.16 µM
  IC50: < 31.6 nM
Second compound 10 µM
  IC50: < 31.6 nM
[1]
  viability, T/C: 49.4%
[2]
  viability, T/C: 43.3%
[3]
  viability, T/C: 44.2%
[4]
  viability, T/C: 32.9%
[5]
  viability, T/C: 37.3%
[6]
  viability, T/C: 53.6%
[7]
  viability, T/C: 47.6%
[8]
  viability, T/C: 43.1%
[9]
  viability, T/C: 35%
[10]
  viability, T/C: 38.2%
[11]
  viability, T/C: 33.7%
[12]
  viability, T/C: 35.4%
[13]
  viability, T/C: 47.6%
[14]
  viability, T/C: 40.9%
[15]
  viability, T/C: 40.7%
[16]
  viability, T/C: 34.6%
[17]
  viability, T/C: 47%
[18]
  viability, T/C: 49.4%
[19]
  viability, T/C: 51.8%
[20]
  viability, T/C: 38.7%
[21]
  viability, T/C: 41.9%
[22]
  viability, T/C: 42.1%
[23]
  viability, T/C: 45.4%
[24]
  viability, T/C: 37%
[25]
  viability, T/C: 51.6%
[26]
  viability, T/C: 34.6%
[27]
  viability, T/C: 41.6%
[28]
  viability, T/C: 38.9%
[29]
  viability, T/C: 33.1%
[30]
  viability, T/C: 38.1%
[31]
  viability, T/C: 29.1%
[32]
  viability, T/C: 29.6%
[33]
  viability, T/C: 29.1%
[34]
  viability, T/C: 25.2%
[35]
  viability, T/C: 19.4%
[36]
  viability, T/C: 30.9%

## CC1COCCN1c1cc(-c2ccnn2C)c2ccnc(-c3ccn[nH]3)c2n1 (stereo unspecified) + Cc1[nH]c2ccc(F)cc2c1-c1nc2c3cccnc3c3ncccc3c2[nH]1
Second compound 0.0316 µM
  IC50: 209 nM
Second compound 0.1 µM
  IC50: 221 nM
Second compound 0.316 µM
  IC50: 78.2 nM
Second compound 1 µM
  IC50: < 31.6 nM
Second compound 3.16 µM
  IC50: < 31.6 nM
Second compound 10 µM
  IC50: < 31.6 nM
[1]
  viability, T/C: 92.4%
[2]
  viability, T/C: 63.8%
[3]
  viability, T/C: 41.3%
[4]
  viability, T/C: 43.3%
[5]
  viability, T/C: 37.2%
[6]
  viability, T/C: 36%
[7]
  viability, T/C: 71.1%
[8]
  viability, T/C: 55.7%
[9]
  viability, T/C: 41.6%
[10]
  viability, T/C: 50.2%
[11]
  viability, T/C: 52.6%
[12]
  viability, T/C: 44%
[13]
  viability, T/C: 59%
[14]
  viability, T/C: 47.7%
[15]
  viability, T/C: 45.7%
[16]
  viability, T/C: 47.2%
[17]
  viability, T/C: 43.9%
[18]
  viability, T/C: 49.1%
[19]
  viability, T/C: 44.3%
[20]
  viability, T/C: 41.5%
[21]
  viability, T/C: 37.6%
[22]
  viability, T/C: 41.8%
[23]
  viability, T/C: 45.1%
[24]
  viability, T/C: 36.5%
[25]
  viability, T/C: 36.9%
[26]
  viability, T/C: 36.9%
[27]
  viability, T/C: 39.7%
[28]
  viability, T/C: 30.7%
[29]
  viability, T/C: 24.9%
[30]
  viability, T/C: 22.4%
[31]
  viability, T/C: 47%
[32]
  viability, T/C: 42.7%
[33]
  viability, T/C: 41.4%
[34]
  viability, T/C: 36.8%
[35]
  viability, T/C: 44.1%
[36]
  viability, T/C: 36.5%
